# From ChEMBL document CHEMBL1240454, “1,3-Dioxolane-based ligands incorporating a lactam or imide moiety: structure-affinity/activity relationship at alpha1-adrenoceptor subtypes and at 5-HT1A receptors” (Eur J Med Chem, 2010)
# Biological target: T1, Alpha-1A adrenergic receptor (Homo sapiens, UniProt P35348)
# T1 sequence (P35348 whole entry): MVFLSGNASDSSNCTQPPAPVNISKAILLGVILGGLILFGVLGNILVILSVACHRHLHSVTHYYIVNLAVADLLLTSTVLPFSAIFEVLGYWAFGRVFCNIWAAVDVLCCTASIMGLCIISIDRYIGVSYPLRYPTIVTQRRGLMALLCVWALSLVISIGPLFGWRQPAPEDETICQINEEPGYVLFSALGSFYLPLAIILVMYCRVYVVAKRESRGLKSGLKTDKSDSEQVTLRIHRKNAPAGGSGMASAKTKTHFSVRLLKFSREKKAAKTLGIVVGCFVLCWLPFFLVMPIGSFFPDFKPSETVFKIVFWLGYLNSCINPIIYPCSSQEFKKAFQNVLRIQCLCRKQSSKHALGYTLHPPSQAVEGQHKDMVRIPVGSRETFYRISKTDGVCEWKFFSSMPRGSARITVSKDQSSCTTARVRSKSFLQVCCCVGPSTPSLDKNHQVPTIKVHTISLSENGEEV
# Description: Displacement [3H]prazosin of human recombinant alpha1A adrenergic receptor expressed in CHO cells by rapid filtration technique
row,Ki [nM],Compound
1,0.263,COc1ccccc1N1CCN(CC2OCC(c3ccccc3)(c3ccccc3)O2)CC1 (stereo unspecified)
2,0.871,COc1ccccc1N1CCN(C[C@H]2CO[C@@](CN3CCCCC3=O)(c3ccccc3)O2)CC1
3,10,COc1ccccc1N1CCN(C[C@@H]2CO[C@@](CN3C(=O)CC4(CCCC4)CC3=O)(c3ccccc3)O2)CC1 (relative stereo)
4,1.38,COc1ccccc1N1CCN(C[C@H]2CO[C@](CN3CCCC3=O)(c3ccccc3)O2)CC1 (relative stereo)
5,12.6,COc1ccccc1N1CCN(C[C@@H]2CO[C@](CN3CCCC3=O)(c3ccccc3)O2)CC1 (relative stereo)
6,11.5,COc1ccccc1N1CCN(C[C@@H]2CO[C@@](CN3CCCCC3=O)(c3ccccc3)O2)CC1 (relative stereo)

# Species: Rattus norvegicus
# Experiment: Selectivity for adrenergic Alpha-1B receptor in Wistar rat spleen over adrenergic alpha1D receptor in Wistar rat thoracic aorta
# Format: tissue-based
row,Compound,Selectivity ratio
1,COc1ccccc1N1CCN(CC2OCC(c3ccccc3)(c3ccccc3)O2)CC1 (stereo unspecified),28
2,COc1ccccc1N1CCN(C[C@H]2CO[C@@](CN3CCCCC3=O)(c3ccccc3)O2)CC1,0.06
3,COc1ccccc1N1CCN(C[C@@H]2CO[C@@](CN3C(=O)CC4(CCCC4)CC3=O)(c3ccccc3)O2)CC1 (relative stereo),11
4,COc1ccccc1N1CCN(C[C@H]2CO[C@](CN3CCCC3=O)(c3ccccc3)O2)CC1 (relative stereo),0.03
5,COc1ccccc1N1CCN(C[C@@H]2CO[C@](CN3CCCC3=O)(c3ccccc3)O2)CC1 (relative stereo),0.1
6,COc1ccccc1N1CCN(C[C@@H]2CO[C@@](CN3CCCCC3=O)(c3ccccc3)O2)CC1 (relative stereo),0.1

# Biological target: T2, Alpha-1A adrenergic receptor (Rattus norvegicus) (UniProt P43140)
# T2 sequence (whole entry): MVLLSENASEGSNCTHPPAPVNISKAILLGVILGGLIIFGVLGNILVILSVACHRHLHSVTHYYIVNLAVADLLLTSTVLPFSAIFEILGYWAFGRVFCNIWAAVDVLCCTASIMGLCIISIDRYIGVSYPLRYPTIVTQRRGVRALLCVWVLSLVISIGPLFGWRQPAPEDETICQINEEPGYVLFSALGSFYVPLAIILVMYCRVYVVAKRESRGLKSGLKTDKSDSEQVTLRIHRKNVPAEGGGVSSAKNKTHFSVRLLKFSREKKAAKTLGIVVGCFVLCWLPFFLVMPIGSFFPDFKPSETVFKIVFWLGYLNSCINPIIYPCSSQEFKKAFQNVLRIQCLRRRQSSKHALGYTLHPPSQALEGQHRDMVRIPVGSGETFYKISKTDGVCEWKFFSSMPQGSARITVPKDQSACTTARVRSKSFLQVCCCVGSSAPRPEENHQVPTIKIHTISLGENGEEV
# Experiment: Antagonist activity at adrenergic alpha1A receptor in Wistar rat prostatic vas deferens assessed as inhibition of (-)-noradrenaline-induced tissue contraction treated 30 mins before (-)noradrenalin challenge
# Format: functional, tissue-based
row,pKb,Compound
1,8.24,COc1ccccc1N1CCN(CC2OCC(c3ccccc3)(c3ccccc3)O2)CC1 (stereo unspecified)
2,7.3,COc1ccccc1N1CCN(C[C@H]2CO[C@@](CN3CCCCC3=O)(c3ccccc3)O2)CC1
3,7.29,COc1ccccc1N1CCN(C[C@@H]2CO[C@@](CN3C(=O)CC4(CCCC4)CC3=O)(c3ccccc3)O2)CC1 (relative stereo)
4,7.94,COc1ccccc1N1CCN(C[C@H]2CO[C@](CN3CCCC3=O)(c3ccccc3)O2)CC1 (relative stereo)
5,7.34,COc1ccccc1N1CCN(C[C@@H]2CO[C@](CN3CCCC3=O)(c3ccccc3)O2)CC1 (relative stereo)
6,7.32,COc1ccccc1N1CCN(C[C@@H]2CO[C@@](CN3CCCCC3=O)(c3ccccc3)O2)CC1 (relative stereo)

# Biological target: T3, 5-hydroxytryptamine receptor 1A (Homo sapiens, UniProt P08908)
# T3 sequence (P08908 whole entry): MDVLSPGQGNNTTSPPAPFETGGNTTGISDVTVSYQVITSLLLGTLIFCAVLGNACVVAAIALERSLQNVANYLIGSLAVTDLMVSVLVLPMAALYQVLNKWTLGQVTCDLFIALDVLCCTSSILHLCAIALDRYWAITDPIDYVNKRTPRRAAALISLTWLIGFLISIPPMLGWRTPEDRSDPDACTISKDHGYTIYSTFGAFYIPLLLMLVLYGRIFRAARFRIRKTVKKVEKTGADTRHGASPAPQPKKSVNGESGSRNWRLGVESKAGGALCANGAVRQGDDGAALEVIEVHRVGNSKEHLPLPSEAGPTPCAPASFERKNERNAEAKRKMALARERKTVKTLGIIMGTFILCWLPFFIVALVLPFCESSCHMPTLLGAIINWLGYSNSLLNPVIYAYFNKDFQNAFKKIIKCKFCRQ
row,Ki [nM],Compound
1,22.9,COc1ccccc1N1CCN(CC2OCC(c3ccccc3)(c3ccccc3)O2)CC1 (stereo unspecified)
2,5.25,COc1ccccc1N1CCN(C[C@H]2CO[C@@](CN3CCCCC3=O)(c3ccccc3)O2)CC1
3,1.26,COc1ccccc1N1CCN(C[C@@H]2CO[C@@](CN3C(=O)CC4(CCCC4)CC3=O)(c3ccccc3)O2)CC1 (relative stereo)
4,6.92,COc1ccccc1N1CCN(C[C@H]2CO[C@](CN3CCCC3=O)(c3ccccc3)O2)CC1 (relative stereo)
5,11.2,COc1ccccc1N1CCN(C[C@@H]2CO[C@](CN3CCCC3=O)(c3ccccc3)O2)CC1 (relative stereo)
6,5.13,COc1ccccc1N1CCN(C[C@@H]2CO[C@@](CN3CCCCC3=O)(c3ccccc3)O2)CC1 (relative stereo)

# Biological target: T4, Alpha-1D adrenergic receptor (Homo sapiens, UniProt P25100)
# T4 sequence (P25100 whole entry): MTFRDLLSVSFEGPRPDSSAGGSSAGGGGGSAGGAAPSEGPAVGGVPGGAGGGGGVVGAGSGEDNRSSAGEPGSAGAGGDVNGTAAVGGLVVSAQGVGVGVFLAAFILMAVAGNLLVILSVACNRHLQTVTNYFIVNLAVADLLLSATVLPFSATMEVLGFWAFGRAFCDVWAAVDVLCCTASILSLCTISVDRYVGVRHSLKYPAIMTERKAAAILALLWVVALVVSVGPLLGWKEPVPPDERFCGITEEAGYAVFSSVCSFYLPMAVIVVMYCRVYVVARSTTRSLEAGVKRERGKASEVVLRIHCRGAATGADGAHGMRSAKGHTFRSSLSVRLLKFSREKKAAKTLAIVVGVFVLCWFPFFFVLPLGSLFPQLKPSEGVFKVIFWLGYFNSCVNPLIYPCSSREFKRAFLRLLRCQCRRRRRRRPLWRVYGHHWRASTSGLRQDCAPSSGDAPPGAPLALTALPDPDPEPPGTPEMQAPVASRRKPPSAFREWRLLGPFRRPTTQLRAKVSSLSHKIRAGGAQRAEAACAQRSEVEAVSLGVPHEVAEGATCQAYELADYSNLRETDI
# Description: Displacement [3H]prazosin of human recombinant Alpha-1D adrenergic receptor expressed in CHO cells by rapid filtration technique
row,Ki [nM],Compound
1,0.813,COc1ccccc1N1CCN(CC2OCC(c3ccccc3)(c3ccccc3)O2)CC1 (stereo unspecified)
2,14.1,COc1ccccc1N1CCN(C[C@H]2CO[C@@](CN3CCCCC3=O)(c3ccccc3)O2)CC1
3,1.38,COc1ccccc1N1CCN(C[C@@H]2CO[C@@](CN3C(=O)CC4(CCCC4)CC3=O)(c3ccccc3)O2)CC1 (relative stereo)
4,13.5,COc1ccccc1N1CCN(C[C@H]2CO[C@](CN3CCCC3=O)(c3ccccc3)O2)CC1 (relative stereo)
5,5.25,COc1ccccc1N1CCN(C[C@@H]2CO[C@](CN3CCCC3=O)(c3ccccc3)O2)CC1 (relative stereo)
6,1.48,COc1ccccc1N1CCN(C[C@@H]2CO[C@@](CN3CCCCC3=O)(c3ccccc3)O2)CC1 (relative stereo)

# Biological target: T5, Alpha-1B adrenergic receptor (Rattus norvegicus) (UniProt P15823)
# T5 sequence (whole entry): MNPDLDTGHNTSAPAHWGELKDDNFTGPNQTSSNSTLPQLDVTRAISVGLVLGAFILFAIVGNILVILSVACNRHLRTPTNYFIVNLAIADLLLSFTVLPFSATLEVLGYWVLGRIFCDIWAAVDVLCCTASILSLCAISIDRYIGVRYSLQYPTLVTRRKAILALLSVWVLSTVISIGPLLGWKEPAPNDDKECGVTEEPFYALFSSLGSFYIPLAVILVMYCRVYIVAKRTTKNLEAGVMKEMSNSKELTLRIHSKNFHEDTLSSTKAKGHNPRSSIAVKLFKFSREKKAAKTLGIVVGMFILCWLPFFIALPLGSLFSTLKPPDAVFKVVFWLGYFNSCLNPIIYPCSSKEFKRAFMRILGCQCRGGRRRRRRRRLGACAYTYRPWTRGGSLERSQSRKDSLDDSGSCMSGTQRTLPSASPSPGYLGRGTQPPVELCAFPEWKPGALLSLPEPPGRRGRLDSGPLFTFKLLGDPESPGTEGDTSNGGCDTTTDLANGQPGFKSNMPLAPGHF
# Experiment: Antagonist activity at adrenergic Alpha-1B receptor in Wistar rat spleen assessed as inhibition of […]-induced tissue contraction treated 30 mins before […] challenge
# Format: functional, tissue-based
row,pKb,Compound
1,6.69,COc1ccccc1N1CCN(CC2OCC(c3ccccc3)(c3ccccc3)O2)CC1 (stereo unspecified)
2,7.93,COc1ccccc1N1CCN(C[C@H]2CO[C@@](CN3CCCCC3=O)(c3ccccc3)O2)CC1
3,7.47,COc1ccccc1N1CCN(C[C@@H]2CO[C@@](CN3C(=O)CC4(CCCC4)CC3=O)(c3ccccc3)O2)CC1 (relative stereo)
4,8.29,COc1ccccc1N1CCN(C[C@H]2CO[C@](CN3CCCC3=O)(c3ccccc3)O2)CC1 (relative stereo)
5,8.17,COc1ccccc1N1CCN(C[C@@H]2CO[C@](CN3CCCC3=O)(c3ccccc3)O2)CC1 (relative stereo)
6,8.3,COc1ccccc1N1CCN(C[C@@H]2CO[C@@](CN3CCCCC3=O)(c3ccccc3)O2)CC1 (relative stereo)
